Key:
CHK1 = target: T1, CHK1 (Homo sapiens, UniProt O14757); assay: biochemical; conditions: read-out: % enzyme activity, 1 μM; Run 1, Run 2
T1 sequence (O14757 1-476): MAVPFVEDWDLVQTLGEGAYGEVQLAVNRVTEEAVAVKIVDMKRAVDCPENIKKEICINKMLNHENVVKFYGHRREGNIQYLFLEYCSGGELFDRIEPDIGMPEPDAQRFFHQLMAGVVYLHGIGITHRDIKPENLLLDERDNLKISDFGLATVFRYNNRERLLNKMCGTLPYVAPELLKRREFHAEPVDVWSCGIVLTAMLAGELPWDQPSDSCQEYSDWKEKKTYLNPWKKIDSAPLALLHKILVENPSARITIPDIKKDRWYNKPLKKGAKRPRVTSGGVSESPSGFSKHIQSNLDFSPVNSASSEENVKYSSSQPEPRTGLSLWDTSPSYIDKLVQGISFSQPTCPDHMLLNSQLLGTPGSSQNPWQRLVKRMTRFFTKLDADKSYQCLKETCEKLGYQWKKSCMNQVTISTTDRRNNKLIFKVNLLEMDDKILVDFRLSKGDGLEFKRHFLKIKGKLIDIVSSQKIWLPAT

ALK1/ACVRL1 = target: T2, ALK1/ACVRL1 (Homo sapiens, UniProt P37023); assay: 375-member kinase panel; format: biochemical; conditions: Run 1, Run 2; for % enzyme activity: 1 μM
T2 construct: purchased Reaction Biology Corporation
T2 sequence (P37023 22-503): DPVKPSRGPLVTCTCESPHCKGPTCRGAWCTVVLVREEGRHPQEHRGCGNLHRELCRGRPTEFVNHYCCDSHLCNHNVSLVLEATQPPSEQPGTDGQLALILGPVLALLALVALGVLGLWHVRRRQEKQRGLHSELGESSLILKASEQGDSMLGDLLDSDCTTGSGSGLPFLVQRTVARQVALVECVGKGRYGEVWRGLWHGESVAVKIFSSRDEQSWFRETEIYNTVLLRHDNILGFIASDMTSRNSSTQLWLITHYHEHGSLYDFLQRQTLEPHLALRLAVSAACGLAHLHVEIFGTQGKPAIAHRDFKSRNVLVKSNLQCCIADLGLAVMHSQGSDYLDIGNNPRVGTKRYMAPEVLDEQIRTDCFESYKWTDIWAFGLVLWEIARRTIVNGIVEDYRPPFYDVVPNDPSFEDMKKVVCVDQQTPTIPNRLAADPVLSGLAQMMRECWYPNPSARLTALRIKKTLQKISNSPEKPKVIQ

PKN2/PRK2 = PKN2/PRK2 (Homo sapiens, UniProt Q16513); conditions: 1 μM; Run 1, Run 2
PKN2/PRK2, sequence (Q16513 whole entry): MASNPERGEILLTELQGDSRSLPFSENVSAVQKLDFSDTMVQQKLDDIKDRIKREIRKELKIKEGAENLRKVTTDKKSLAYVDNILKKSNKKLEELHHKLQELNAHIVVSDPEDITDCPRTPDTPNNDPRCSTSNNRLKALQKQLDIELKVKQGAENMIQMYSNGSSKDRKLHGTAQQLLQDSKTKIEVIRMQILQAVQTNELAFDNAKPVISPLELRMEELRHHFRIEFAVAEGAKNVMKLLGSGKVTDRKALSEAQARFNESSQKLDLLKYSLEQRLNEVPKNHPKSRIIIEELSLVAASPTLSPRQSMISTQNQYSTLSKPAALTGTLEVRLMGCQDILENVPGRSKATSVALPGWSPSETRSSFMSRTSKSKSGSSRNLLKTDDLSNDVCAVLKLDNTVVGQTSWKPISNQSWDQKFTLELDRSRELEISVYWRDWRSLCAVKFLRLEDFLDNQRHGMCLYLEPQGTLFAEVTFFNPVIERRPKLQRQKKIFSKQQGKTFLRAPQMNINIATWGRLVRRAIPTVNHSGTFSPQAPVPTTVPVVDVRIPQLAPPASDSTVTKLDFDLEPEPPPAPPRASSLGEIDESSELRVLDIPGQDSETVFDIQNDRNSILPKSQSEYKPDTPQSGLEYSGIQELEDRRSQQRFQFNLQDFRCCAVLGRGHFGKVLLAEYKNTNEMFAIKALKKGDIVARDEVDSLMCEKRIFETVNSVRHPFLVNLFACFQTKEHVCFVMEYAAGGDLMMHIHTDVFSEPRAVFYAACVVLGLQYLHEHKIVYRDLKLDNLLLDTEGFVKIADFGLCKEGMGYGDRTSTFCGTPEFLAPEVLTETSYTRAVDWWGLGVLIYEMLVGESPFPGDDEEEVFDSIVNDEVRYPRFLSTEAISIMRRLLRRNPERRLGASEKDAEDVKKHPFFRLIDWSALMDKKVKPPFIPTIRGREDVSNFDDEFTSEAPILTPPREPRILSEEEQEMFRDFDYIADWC

ULK3 = target: T3, ULK3 (Homo sapiens, UniProt Q6PHR2); conditions: 1 μM; Run 1, Run 2
T3 sequence (Q6PHR2 1-472): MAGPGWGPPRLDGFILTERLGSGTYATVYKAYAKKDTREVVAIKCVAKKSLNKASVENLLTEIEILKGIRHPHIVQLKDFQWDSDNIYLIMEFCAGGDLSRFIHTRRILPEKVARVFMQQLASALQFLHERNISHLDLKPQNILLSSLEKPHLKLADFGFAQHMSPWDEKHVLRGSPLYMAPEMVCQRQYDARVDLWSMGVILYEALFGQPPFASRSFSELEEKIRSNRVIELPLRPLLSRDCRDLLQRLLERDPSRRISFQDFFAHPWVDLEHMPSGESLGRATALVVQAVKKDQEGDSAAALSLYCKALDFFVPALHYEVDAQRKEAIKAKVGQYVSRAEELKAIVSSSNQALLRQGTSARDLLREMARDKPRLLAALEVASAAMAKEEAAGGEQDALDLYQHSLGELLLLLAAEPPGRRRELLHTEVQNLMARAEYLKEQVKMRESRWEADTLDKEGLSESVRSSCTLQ

ARAF = target: T4, ARAF (Homo sapiens, UniProt P10398); conditions: 1 μM; Run 1, Run 2
T4 sequence (P10398 1-606): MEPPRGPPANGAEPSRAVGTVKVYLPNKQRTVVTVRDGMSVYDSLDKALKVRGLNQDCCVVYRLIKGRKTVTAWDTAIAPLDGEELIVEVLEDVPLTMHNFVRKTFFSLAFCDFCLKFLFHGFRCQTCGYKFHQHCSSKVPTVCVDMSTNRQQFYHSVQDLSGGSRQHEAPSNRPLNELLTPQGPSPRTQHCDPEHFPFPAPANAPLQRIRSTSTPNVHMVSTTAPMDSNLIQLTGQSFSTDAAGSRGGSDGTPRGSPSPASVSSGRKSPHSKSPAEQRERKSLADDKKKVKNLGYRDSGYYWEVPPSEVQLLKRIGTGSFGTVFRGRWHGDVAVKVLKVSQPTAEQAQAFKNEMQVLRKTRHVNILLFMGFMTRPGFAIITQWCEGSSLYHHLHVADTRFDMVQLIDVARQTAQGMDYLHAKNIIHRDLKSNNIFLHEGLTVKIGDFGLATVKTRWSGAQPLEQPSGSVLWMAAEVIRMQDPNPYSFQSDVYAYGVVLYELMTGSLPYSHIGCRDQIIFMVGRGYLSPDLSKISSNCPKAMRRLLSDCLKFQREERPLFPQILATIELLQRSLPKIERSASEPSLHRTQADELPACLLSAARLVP

PAK6 = PAK6 (Homo sapiens, UniProt Q9NQU5); assay: biochemical; conditions: read-out: % enzyme activity, 1 μM; Run 1, Run 2
PAK6, sequence (Q9NQU5 whole entry): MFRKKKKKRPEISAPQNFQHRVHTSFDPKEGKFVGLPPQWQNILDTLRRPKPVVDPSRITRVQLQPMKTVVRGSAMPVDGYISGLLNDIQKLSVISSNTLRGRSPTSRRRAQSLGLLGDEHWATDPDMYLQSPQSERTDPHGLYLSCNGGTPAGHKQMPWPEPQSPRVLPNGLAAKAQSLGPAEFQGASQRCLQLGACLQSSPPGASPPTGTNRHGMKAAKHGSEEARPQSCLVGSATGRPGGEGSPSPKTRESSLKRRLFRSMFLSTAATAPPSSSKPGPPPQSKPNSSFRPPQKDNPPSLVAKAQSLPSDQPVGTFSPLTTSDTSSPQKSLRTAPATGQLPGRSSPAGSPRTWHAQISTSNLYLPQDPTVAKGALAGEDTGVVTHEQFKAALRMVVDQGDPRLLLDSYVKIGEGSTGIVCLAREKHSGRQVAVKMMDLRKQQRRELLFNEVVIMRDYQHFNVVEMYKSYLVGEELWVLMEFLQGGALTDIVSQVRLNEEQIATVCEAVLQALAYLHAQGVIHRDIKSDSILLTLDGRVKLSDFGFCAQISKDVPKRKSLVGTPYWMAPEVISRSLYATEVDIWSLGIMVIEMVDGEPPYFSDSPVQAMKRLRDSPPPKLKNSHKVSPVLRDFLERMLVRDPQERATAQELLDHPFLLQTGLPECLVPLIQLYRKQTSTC

PKCnu/PRKD3 = target: T5, PKCnu/PRKD3 (Homo sapiens, UniProt O94806); assay: biochemical; conditions: read-out: % enzyme activity, 1 μM; Run 1, Run 2
T5 sequence (O94806 1-890): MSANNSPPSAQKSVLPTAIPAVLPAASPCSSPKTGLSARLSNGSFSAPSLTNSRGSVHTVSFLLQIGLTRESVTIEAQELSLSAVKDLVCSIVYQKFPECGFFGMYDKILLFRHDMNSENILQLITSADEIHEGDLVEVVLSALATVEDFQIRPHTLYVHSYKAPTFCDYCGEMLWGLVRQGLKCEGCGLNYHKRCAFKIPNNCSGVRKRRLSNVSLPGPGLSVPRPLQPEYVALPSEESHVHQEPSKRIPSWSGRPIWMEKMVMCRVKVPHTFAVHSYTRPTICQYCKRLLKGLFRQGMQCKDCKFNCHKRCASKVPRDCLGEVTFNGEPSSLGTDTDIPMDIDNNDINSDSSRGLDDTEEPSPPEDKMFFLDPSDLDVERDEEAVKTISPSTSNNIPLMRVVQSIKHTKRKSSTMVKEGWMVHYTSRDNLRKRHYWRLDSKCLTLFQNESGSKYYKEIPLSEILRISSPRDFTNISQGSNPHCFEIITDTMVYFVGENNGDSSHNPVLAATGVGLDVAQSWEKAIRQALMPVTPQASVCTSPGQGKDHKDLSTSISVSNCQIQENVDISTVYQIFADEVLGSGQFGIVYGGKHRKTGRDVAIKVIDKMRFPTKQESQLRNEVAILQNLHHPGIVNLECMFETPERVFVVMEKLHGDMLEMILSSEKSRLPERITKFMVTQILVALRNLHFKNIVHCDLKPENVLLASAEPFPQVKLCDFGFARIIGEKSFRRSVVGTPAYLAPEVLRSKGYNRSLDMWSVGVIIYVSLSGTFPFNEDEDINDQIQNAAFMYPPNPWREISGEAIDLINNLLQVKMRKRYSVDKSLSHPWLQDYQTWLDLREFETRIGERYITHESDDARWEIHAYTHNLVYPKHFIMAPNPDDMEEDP

c-Src = c-Src (Homo sapiens, UniProt P12931); conditions: 1 μM; Run 1, Run 2
CAMK1a = CAMK1a (Homo sapiens, UniProt Q14012); conditions: 1 μM; Run 1, Run 2
CAMK1a, sequence (Q14012 whole entry): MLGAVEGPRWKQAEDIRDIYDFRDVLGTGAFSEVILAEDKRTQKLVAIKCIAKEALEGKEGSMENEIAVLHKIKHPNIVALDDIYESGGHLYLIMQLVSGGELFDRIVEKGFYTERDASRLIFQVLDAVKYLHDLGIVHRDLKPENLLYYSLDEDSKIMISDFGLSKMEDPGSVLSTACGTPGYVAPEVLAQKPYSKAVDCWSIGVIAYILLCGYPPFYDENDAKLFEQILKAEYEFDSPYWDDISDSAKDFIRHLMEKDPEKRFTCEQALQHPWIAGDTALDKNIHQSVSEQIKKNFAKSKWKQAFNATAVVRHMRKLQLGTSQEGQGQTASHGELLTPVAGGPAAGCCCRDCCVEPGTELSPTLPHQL

ERBB2/HER2 = ERBB2/HER2 (Homo sapiens, UniProt P04626); conditions: 1 μM; Run 1, Run 2
ERBB2/HER2, sequence (P04626 23-1255): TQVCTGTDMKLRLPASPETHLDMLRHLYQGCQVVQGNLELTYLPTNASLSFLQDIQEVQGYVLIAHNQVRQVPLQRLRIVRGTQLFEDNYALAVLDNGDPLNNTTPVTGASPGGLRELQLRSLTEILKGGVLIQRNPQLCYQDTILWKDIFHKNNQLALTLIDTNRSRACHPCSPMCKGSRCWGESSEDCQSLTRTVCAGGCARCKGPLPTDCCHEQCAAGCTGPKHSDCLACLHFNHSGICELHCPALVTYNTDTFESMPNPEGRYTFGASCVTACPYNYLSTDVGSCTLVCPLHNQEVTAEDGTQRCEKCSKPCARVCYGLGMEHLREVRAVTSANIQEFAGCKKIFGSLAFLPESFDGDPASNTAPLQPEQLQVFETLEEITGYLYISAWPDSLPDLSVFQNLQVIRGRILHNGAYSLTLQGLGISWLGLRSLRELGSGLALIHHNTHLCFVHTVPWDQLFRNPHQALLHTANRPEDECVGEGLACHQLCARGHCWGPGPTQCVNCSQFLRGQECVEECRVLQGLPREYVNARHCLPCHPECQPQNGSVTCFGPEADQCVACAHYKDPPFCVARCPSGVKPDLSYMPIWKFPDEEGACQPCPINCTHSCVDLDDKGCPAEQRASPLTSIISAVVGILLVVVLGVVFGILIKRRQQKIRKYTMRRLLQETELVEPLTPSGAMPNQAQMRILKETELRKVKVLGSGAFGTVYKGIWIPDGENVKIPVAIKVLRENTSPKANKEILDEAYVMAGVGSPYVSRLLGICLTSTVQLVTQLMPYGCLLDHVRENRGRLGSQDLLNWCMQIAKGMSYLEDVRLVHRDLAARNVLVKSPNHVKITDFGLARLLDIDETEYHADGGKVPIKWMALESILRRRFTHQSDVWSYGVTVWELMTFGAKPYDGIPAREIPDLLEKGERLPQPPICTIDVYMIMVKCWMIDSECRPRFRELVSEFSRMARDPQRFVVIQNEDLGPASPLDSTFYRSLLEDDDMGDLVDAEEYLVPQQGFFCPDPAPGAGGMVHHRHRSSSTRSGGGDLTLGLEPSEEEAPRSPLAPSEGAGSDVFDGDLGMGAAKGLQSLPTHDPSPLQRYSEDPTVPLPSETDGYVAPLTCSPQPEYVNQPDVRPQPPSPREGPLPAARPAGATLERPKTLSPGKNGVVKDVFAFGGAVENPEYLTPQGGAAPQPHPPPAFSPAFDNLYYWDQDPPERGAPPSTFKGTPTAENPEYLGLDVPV

MARK1 = MARK1 (Homo sapiens, UniProt Q9P0L2); assay: biochemical; conditions: read-out: % enzyme activity, 1 μM; Run 1, Run 2
MARK1, sequence (Q9P0L2 whole entry): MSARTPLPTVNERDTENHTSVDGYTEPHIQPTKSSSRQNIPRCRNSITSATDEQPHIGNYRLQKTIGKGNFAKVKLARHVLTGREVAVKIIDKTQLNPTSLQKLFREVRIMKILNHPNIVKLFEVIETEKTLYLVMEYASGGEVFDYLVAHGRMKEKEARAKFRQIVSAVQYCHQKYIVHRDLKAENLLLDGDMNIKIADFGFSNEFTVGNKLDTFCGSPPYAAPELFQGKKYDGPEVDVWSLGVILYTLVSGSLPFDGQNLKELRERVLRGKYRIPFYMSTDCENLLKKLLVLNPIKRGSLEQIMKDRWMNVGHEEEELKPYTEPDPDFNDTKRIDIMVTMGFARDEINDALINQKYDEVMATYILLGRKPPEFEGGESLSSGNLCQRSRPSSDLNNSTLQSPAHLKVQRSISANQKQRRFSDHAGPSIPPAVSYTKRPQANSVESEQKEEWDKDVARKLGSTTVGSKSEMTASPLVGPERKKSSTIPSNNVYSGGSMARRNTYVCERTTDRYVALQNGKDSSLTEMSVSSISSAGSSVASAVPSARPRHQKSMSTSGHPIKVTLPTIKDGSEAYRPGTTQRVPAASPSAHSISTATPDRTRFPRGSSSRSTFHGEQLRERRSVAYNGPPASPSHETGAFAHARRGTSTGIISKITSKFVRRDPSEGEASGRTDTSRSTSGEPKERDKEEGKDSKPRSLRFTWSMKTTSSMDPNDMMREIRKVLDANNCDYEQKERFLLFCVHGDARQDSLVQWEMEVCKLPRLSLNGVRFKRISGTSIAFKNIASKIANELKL

Structure (SMILES) | remaining activity at 1 µM (CHK1) [%] | % enzyme activity (ALK1/ACVRL1) [%] | % enzyme activity (PKN2/PRK2) [%] | % enzyme activity (ULK3) [%] | % enzyme activity (ARAF) [%] | remaining activity at 1 µM (PAK6) [%] | remaining activity at 1 µM (PKCnu/PRKD3) [%] | % enzyme activity (c-Src) [%] | % enzyme activity (CAMK1a) [%] | % enzyme activity (ERBB2/HER2) [%] | remaining activity at 1 µM (MARK1) [%] | remaining activity at 1 µM (ALK1/ACVRL1; read-out: % enzyme activity, 1 μM) [%]
COc1cc(-c2cncc(-c3ccc(N4CCN(C)CC4)cc3)c2C)cc(F)c1C(N)=O [Compound 26a, 2-Fluoro-6-methoxy-4-(4-methyl-5-(4-(4-methylpiperazin-1-yl)phenyl)pyridin-3-yl)benzamide] | 98.2 | 2.65 | 91.84 | 91.23 | 28.83 | 102 | 82.2 | 96.22 | 92.25 | 89.07 | 88 | –
COc1cc(-c2cncc(-c3ccc(N4C[C@@H](C)N(C)[C@@H](C)C4)cc3)c2C)cc(F)c1C(N)=O [Compound 26c, 2-Fluoro-6-methoxy-4-(4-methyl-5-(4-((3R,5S)-3,4,5-trimethylpiperazin-1-yl)phenyl)pyridin-3-yl)benzamide] | 117 | 4.38 | 95.77 | 97.24 | 43.32 | 96.3 | 89 | 97.10 | 96.82 | 95.40 | 94.1 | 4.67
